Measured values: PubChem BioAssay AID588539 (The Scripps Research Institute Molecular Screening Center, 2011)

Assay: cell cycle phase distribution in DLD-1 cells, late-stage follow-up, counter-screen for KLF5 inhibitor project, flow cytometry, propidium iodide, powder samples (AID 588539)
Settings: DLD-1 cell cycle, at 10 µM; for G1 cells: G1 phase fraction; for G2/M cells: G2/M phase fraction; for S cells: S phase fraction; for subG1 cells: stronger effect = higher value

CN(C(=O)COC(=O)/C=C/c1cccc([N+](=O)[O-])c1)C1CCS(=O)(=O)C1 (stereo not drawn)
G1 cells (24 h): 39.4% | G2/M cells (24 h): 34.7% | S cells (24 h): 18.3% | subG1 cells (24 h): 8.03% | G1 cells (48 h): 27.6% | G2/M cells (48 h): 57.6% | S cells (48 h): 13% | subG1 cells (48 h): 1.86%
